Assay results: ChEMBL document CHEMBL4627402, “Design and Synthesis of Styrenylcyclopropylamine LSD1 Inhibitors” (ACS Med Chem Lett, 2020)
pEC50, pIC50, pKi: −log10 of the molar value. Calls of active or inactive are those of the source. The rule behind the calls is not given here.

Tests used:
[1] = Metabolic stability in dog liver microsomes assessed as intrinsic clearance; type: ADME, Canis lupus familiaris, Microsome; conditions: read-out: CLH
[2] = system: Kasumi 1; assay: Growth inhibition on human Kasumi-1 cells measured upto 12 days by Cell Titer-Glo luminescent cell viability assay; type: functional; conditions: Kasumi 1, 288 h
[3] = Metabolic stability in mouse liver microsomes assessed as intrinsic clearance; type: ADME, Microsome; conditions: read-out: CLH
[4] = target: T1, Lysine-specific histone demethylase 1A (Homo sapiens, UniProt O60341)
Description: Inhibition of LSD1 in human MV4-11 cells assessed as induction of LY96 mRNA expression incubated for 16 hrs by chemiluminescent method

[5] = target: T1, Lysine-specific histone demethylase 1A; remark: listed apart in the source
[6] = Metabolic stability in human liver microsomes assessed as intrinsic clearance; type: ADME, Microsome; conditions: read-out: CLH
[7] = Metabolic stability in rat liver microsomes assessed as intrinsic clearance; type: ADME, Microsome; conditions: read-out: CLH
[8] = Protein binding in plasma (unknown origin) assessed as parent compound remaining; type: ADME, cell-free
[9] = system: Kasumi 1; assay: Antitumor activity against human Kasumi-1 cells xenografted in oral dosed CB17 SCID mouse assessed as tumor growth inhibition administered for 14 days; type: functional, organism-based
[10] = system: SET-2; assay: Growth inhibition on human SET2 cells measured upto 12 days by Cell Titer-Glo luminescent cell viability assay; type: functional; conditions: SET-2, 288 h
[11] = system: MV4-11; assay: Growth inhibition on human MV4-11 cells measured upto 12 days by Cell Titer-Glo luminescent cell viability assay; type: functional; conditions: MV4-11, 288 h
[12] = system: OCI-AML-5; assay: Growth inhibition on human OCI-AML5 cells measured upto 12 days by Cell Titer-Glo luminescent cell viability assay; type: functional; conditions: OCI-AML-5, 288 h
[13] = system: OCI-AML-3; assay: Growth inhibition on human OCI-AML3 cells measured upto 12 days by Cell Titer-Glo luminescent cell viability assay; type: functional; conditions: OCI-AML-3, 288 h
[14] = Clearance in mouse at 1 mg/kg, iv; type: ADME, organism-based; conditions: in vivo
[15] = target: T1, Lysine-specific histone demethylase 1A; remark: listed apart in the source
[16] = Volume of distribution at steady state in mouse at 1 mg/kg, iv; type: ADME, organism-based; conditions: in vivo, read-out: Vdss
[17] = Half life in mouse at 1 mg/kg, iv; type: ADME, organism-based; conditions: in vivo
[18] = Toxicity in CB17 SCID mouse xenografted with human Kasumi-1 cells assessed body weight loss at 1.5 mg/kg, po administered for 14 days; type: organism-based; conditions: in vivo, 336 h
[19] = target: T1, Lysine-specific histone demethylase 1A; remark: listed apart in the source
[20] = AUC (0 to infinity) in mouse at 5 mg/kg, po; type: ADME, organism-based; design: dose 5 mg/kg, time infinity, route oral; conditions: in vivo
[21] = target: T1, Lysine-specific histone demethylase 1A; remark: listed apart in the source
[22] = Oral bioavailability in mouse at 5 mg/kg; type: ADME, organism-based; conditions: in vivo
[23] = system: Mus musculus; assay: Induction of LY96 mRNA in CB17-scid mouse xenografted with human Kasumi-1 cells at 0.5 and 1.5 mg/kg, po administered for 14 days; type: functional, organism-based
[24] = Cmax in mouse at 5 mg/kg, po; type: ADME, organism-based; design: dose 5 mg/kg, route oral; conditions: in vivo
[25] = target: T2, Amine oxidase [flavin-containing] A (Homo sapiens, UniProt P21397); assay: Inhibition of MAO-A (unknown origin)
T2 sequence (P21397 whole entry): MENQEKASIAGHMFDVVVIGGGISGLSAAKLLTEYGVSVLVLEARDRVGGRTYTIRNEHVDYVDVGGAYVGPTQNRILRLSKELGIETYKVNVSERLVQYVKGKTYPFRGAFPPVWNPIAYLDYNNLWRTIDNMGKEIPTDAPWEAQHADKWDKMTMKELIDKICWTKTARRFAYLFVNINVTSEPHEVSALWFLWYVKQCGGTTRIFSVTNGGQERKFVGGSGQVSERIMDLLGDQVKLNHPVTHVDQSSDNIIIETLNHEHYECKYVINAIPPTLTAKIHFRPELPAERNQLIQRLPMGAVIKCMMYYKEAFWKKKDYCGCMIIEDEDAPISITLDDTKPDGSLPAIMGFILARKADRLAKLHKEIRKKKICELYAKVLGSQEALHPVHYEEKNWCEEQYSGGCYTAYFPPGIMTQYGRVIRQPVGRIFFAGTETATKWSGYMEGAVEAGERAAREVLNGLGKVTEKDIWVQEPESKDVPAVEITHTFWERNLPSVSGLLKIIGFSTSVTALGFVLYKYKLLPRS

[26] = system: NOMO-1; assay: Growth inhibition on human NOMO1 cells measured upto 12 days by Cell Titer-Glo luminescent cell viability assay; type: functional; conditions: NOMO-1, 288 h
[27] = system: SKM-1; assay: Growth inhibition on human SKM1 cells measured upto 12 days by Cell Titer-Glo luminescent cell viability assay; type: functional; conditions: SKM-1, 288 h
[28] = system: MOLM-13; assay: Growth inhibition on human MOLM13 cells measured upto 12 days by Cell Titer-Glo luminescent cell viability assay; type: functional; conditions: MOLM-13, 288 h
[29] = Toxicity in CB17 SCID mouse xenografted with human Kasumi-1 cells assessed body weight loss at 0.5 mg/kg, po administered for 14 days; type: organism-based; conditions: in vivo, 336 h
[30] = target: T3, Amine oxidase [flavin-containing] B (Homo sapiens, UniProt P27338); assay: Inhibition of MAO-B (unknown origin)
T3 sequence (P27338 whole entry): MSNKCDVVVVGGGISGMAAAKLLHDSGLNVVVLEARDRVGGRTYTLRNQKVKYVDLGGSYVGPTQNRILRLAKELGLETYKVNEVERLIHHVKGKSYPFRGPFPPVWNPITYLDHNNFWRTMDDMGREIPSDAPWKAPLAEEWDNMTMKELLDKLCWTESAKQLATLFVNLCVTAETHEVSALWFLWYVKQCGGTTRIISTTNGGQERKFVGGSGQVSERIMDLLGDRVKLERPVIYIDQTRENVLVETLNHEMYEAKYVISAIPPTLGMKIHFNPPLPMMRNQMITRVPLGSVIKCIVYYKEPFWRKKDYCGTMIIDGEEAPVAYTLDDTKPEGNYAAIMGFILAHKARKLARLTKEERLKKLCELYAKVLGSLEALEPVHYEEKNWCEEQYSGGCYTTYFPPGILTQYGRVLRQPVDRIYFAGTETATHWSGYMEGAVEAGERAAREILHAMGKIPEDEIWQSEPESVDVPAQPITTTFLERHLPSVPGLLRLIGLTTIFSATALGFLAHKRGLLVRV

For CC/C(=C\c1ccccc1)[C@@H]1C[C@H]1NC1CC2(C1)CN(CC(F)F)C2, the microsomal CLint [1] was 480 µL/min/mg, the GI50 [2] was 110 nM and the microsomal CLint [3] was 883 µL/min/mg. It also gave a pEC50 [4] of 8.15, a pIC50 [5] greater than 8.52 and a microsomal CLint [6] of 133 µL/min/mg. It also gave a microsomal CLint [7] of 175 µL/min/mg.
C(=C\C1CC1NCC1CCNCC1)/c1ccccc1 (stereo not given) showed a fraction unbound [8] of no more than 0.05.
CC/C(=C\c1ccccc1)[C@@H]1C[C@H]1N[C@H]1CC[C@H](NCCO)CC1 (racemic) showed a pEC50 [4] of 8.22 and a pIC50 [5] greater than 8.74.
In the case of CC/C(=C\c1ccccc1)[C@@H]1C[C@H]1NC1CC2(C1)CN(CCO)C2, the microsomal CLint [1] was 41 µL/min/mg, the TGI [9] was “Dose-dependent effect” and the GI50 [10] was 37 nM. It also gave a GI50 [11] of 5 nM, a GI50 [2] of 1 nM and a microsomal CLint [3] of 25 µL/min/mg. For the same molecule, the GI50 [12] was 332 nM, the GI50 [13] was 271 nM and the clearance [14] was 162 mL/min/kg. For the same molecule, the Ratio [15] was 1e+06 M⁻¹ s⁻¹, the Vd [16] was 118 L/kg and the half-life [17] was 1520 min. The Activity [18] was “<= 5%”, the pKi [19] was 8.21 and the AUC(0-inf) [20] was 189 ng·h/mL. It also gave a Kinact [21] of 0.38 min⁻¹, a pEC50 [4] of 8.70 and a pIC50 [5] greater than 8.52. The microsomal CLint [6] was 9 µL/min/mg, the bioavailability [22] was 59% and the Activity [23] was “Active”. For the same molecule, the Cmax [24] was 40 ng/mL, the pIC50 [25] was less than 4.10 and the GI50 [26] was 78 nM. It also gave a GI50 [27] of 14 nM, a GI50 [28] of 893 nM and a microsomal CLint [7] of 15 µL/min/mg. For the same molecule, the Activity [29] was “Non-Toxic” and the pIC50 [30] was less than 4.10.
CC/C(=C\c1ccccc1)[C@@H]1C[C@H]1NC1CC2(CCN(CCO)CC2)C1 gave a microsomal CLint [1] of 39 µL/min/mg, a GI50 [2] of 1 nM and a microsomal CLint [3] of 28 µL/min/mg. The pEC50 [4] was 8.30, the pIC50 [5] was greater than 8.52 and the microsomal CLint [6] was 10 µL/min/mg. The microsomal CLint [7] was 19 µL/min/mg.
For CC/C(=C\c1ccccc1)[C@@H]1C[C@H]1NC1CCN(CCO)CC1, the microsomal CLint [1] was 106 µL/min/mg, the GI50 [2] was 3 nM and the microsomal CLint [3] was 46 µL/min/mg. For the same molecule, the pEC50 [4] was 8.40, the pIC50 [5] was greater than 8.59 and the microsomal CLint [6] was 41 µL/min/mg. The microsomal CLint [7] was 27 µL/min/mg.
Work on CC/C(=C\c1ccccc1)[C@@H]1C[C@H]1NC1CC2(CNC2)C1 yielded a microsomal CLint [1] of 14 µL/min/mg, a GI50 [2] of 11 nM and a microsomal CLint [3] of 17 µL/min/mg. For the same molecule, the microsomal CLint [6] was 11 µL/min/mg and the microsomal CLint [7] was 19 µL/min/mg.
CC/C(=C\c1ccccc1)[C@@H]1C[C@H]1NC1CC2(C1)CN(C(C)=O)C2 gave a microsomal CLint [1] of 87 µL/min/mg, a GI50 [2] of 41 nM and a microsomal CLint [3] of 76 µL/min/mg. It also gave a microsomal CLint [6] of 18 µL/min/mg and a microsomal CLint [7] of 48 µL/min/mg.
CC/C(=C\c1ccccc1)[C@@H]1C[C@H]1NC1CC2(C1)CN(S(C)(=O)=O)C2 showed a microsomal CLint [1] of 105 µL/min/mg, a GI50 [2] of 17 nM and a microsomal CLint [3] of 812 µL/min/mg. The microsomal CLint [6] was 67 µL/min/mg and the microsomal CLint [7] was 80 µL/min/mg.
With C/C(=C\c1ccccc1)[C@@H]1C[C@H]1NC1CCNCC1 (racemic) the pIC50 [5] was greater than 8.55.
Molecule O=C(O)c1ccc(CN2CCC(CN[C@@H]3C[C@H]3c3ccccc3)CC2)cc1 [GSK2879552] has a GI50 [2] of 20 nM, a Ratio [15] of 680 M⁻¹ s⁻¹ and a pKi [19] of 8.02. The Kinact [21] was 0.39 min⁻¹, the pEC50 [4] was 7.27 and the pIC50 [5] was 6.67.
Molecule CC/C(=C\c1ccccc1)[C@@H]1C[C@H]1NC1CC2(C1)CN(C1COC1)C2 has a microsomal CLint [1] of 283 µL/min/mg, a GI50 [2] of 1 nM and a microsomal CLint [3] of 85 µL/min/mg. It also gave a microsomal CLint [6] of 49 µL/min/mg and a microsomal CLint [7] of 43 µL/min/mg.
